Results from US9969771B2, “Tetrapeptide having effect of inhibiting VEGF-induced angiogenesis and use thereof” (AVIXGEN INC., priority 2015, dated 2018).
“Also recorded” adds a separate entry of the source. Where a SMILES comes first, the peptide text is derived from it.

Columns and labels:
HUVECs [1] = test: VEGF-induced HUVEC proliferation, [3H]-thymidine incorporation assay; assay type: cell-based, human
Protocol: Human umbilical vein endothelial cells (HUVECs) were cultured in M199 medium, and during experiments, the cells were always used at passages 2 to 7. Meanwhile, mouse melanoma cells (B16F1 and B16F10) and human colorectal tumor cells (HCT116) were cultured in RPMI media supplemented with 10% FBS, 1 mM sodium pyruvate, 10 mM 4-(2-hydroxyethyl)-1-piperazineethanesulfonic acid and 100 U/ml penicillin-streptomycin, and human multiple myeloma cells (IM-9 and RPMI 8226) were cultured in RPMI-1640 media. All of the cells were cultured at 37° C. with 5% CO2 in a humidified incubator.
Angiogenic activity was determined by measuring cell proliferation, migration and tube formation. HUVEC proliferation was analyzed by a [3H]-thymidine incorporation assay. The HUVECs were seeded in a 24-well plate coated with gelatin at a density of 2×10^4 cells/well. […] […] […] 3H-labeled polymer DNA was evaluated with a liquid scintillation counter.

HUVECs [2] = test: HUVEC tube formation on Matrigel; assay type: cell-based, human
Protocol: Tube formation of HUVECs was examined using growth factor-reduced Matrigel (hereinafter, referred to as “Matrigel”). 250 μl of Matrigel (10 mg protein/ml) was placed in a 24-well plate to allow polymerization for 30 minutes at 37° C. […] The tube formation was examined under a reverse phase-contrast microscope, and visualized with Image-Pro Plus version 4.5 (Media Cybernetics, San Diego, Calif.). Five samples were randomly selected to measure and quantify a length of the tube formed above.

ERK = test: Western blot, ERK phosphorylation in HUVECs; assay type: cell-based, human
Protocol: (§1) Cells were lyzed in RIPA buffer, and 50 μg of proteins were isolated by SDS-PAGE and then transferred to a PVDF membrane. The membrane was reacted with an antibody with respect to a target protein for 2 hours. The membrane was washed twice and reacted with a horseradish peroxidase-conjugated antibody, and then an amount of the target proteins was assessed with an enhanced chemiluminescence system.

zebrafish = test: Zebrafish angiogenesis assay; assay type: in vivo; details: zebrafish embryo
Protocol: An adult zebrafish and an embryo were grown and maintained in a standard laboratory environment, and a zebrafish experiment was conducted according to the protocols approved by the animal ethics committee of Chungnam National University. To analyze angiogenesis, at 48 hours post fertilization (hpf), the embryo was anesthetized with tricaine (MS-222, 0.02%, embryo buffer), a peptide was administered, and FITC-dextran (2,000 kDa, Sigma) was further injected. A blood vessel image was obtained with a Leica DM5000B system at 72 hpf. As a probe for whole mount in situ hybridization, digoxigenin (DIG)-labeled RNA prepared by a cad5 (NM_001003983) gene was used. Meanwhile, a peptide was injected into the 18-hpf embryo collected at 25 hpf, fixed with 4% paraformaldehyde, washed with PBS (in 0.1% Tween20), and hybridized with DIG-labeled riboprobes (hybridization buffer). Subsequently, the resulting product was reacted with an alkaline phosphatase (AP)-conjugated anti-DIG antibody. Following reaction with an AP staining solution, a staining status was observed and visualized under a microscope (Leica, MZ-16).

Akt = test: Western blot, Akt phosphorylation in VEGF-A-stimulated HUVECs; assay type: cell-based, human; details: HUVECs stimulated with VEGF-A
Protocol: as §1

NO synthase (eNOS) = test: Western blot, eNOS phosphorylation in VEGF-A-stimulated HUVECs; assay type: cell-based, human
Protocol: as §1

VEGFR-1 = biological target: T1, VEGFR-1 (Homo sapiens, UniProt P17948); test: VEGFR pull-down assay using biotin-labeled RLYE, VEGFR-1; assay type: binding; details: HUVEC lysate
T1 construct: endogenous in cells; host or cells: HUVEC lysate
T1 sequence (P17948 27-1338): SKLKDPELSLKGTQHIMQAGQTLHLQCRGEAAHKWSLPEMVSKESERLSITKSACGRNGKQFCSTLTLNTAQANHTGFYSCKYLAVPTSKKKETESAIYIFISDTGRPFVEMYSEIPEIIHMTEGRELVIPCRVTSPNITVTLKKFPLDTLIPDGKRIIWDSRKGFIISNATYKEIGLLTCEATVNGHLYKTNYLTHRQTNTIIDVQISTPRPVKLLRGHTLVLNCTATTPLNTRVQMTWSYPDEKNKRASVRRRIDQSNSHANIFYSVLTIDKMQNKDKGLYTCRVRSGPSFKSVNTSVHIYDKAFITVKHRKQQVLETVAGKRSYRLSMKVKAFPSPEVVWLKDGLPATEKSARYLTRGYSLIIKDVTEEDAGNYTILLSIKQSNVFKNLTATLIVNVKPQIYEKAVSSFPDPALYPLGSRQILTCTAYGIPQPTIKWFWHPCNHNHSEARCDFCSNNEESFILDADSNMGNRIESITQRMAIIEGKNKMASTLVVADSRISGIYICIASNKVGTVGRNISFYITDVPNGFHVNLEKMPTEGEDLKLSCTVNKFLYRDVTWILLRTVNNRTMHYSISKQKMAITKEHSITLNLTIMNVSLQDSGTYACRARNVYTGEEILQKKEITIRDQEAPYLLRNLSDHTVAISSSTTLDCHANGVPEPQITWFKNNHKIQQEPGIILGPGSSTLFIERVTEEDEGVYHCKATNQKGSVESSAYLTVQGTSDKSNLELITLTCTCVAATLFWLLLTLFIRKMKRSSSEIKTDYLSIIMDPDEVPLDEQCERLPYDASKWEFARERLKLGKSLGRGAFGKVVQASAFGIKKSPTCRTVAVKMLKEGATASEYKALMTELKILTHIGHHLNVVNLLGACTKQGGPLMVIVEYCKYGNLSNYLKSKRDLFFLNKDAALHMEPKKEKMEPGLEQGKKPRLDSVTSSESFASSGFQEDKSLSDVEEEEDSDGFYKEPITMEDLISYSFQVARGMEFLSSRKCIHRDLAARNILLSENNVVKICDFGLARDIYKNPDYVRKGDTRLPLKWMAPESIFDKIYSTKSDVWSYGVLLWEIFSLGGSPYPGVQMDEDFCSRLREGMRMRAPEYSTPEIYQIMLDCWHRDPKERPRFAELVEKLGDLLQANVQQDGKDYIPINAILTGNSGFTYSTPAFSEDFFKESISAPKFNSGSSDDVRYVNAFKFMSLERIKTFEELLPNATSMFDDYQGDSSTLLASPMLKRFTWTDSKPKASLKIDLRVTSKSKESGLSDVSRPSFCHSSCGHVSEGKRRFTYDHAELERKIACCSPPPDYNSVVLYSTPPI
Protocol: (§2) HUVECs were lysed in a pull-down buffer [50 mM Tris-HCl (pH 8.0), 150 mM sodium chloride, 1.0% NP-40, 0.5% sodium deoxycholate and 0.1% SDS]. A lysate ([…] of proteins) was reacted with biotin-labeled RLYE (SEQ ID NO: 2) (0.15 or 1.5 nM) for 1 hour, and reacted with streptavidin-agarose beads ([…]) at 4° C. for 1 hour. RLYE (SEQ ID NO: 2)-binding proteins were isolated from the cell lysate through centrifugation, washed, and then boiled for 10 minutes. The bead-binding proteins were isolated by SDS-PAGE, and immunoblotting was performed with an antibody with respect to VEGFR-2 or VEGFR-1.

VEGFR-2 [3] = biological target: T2, VEGFR-2 (Homo sapiens, UniProt P35968); test: Surface plasmon resonance (SPR) assay; assay type: binding; details: rhVEGFR-2 fixed on CM5 chip
T2 sequence (P35968 20-1356): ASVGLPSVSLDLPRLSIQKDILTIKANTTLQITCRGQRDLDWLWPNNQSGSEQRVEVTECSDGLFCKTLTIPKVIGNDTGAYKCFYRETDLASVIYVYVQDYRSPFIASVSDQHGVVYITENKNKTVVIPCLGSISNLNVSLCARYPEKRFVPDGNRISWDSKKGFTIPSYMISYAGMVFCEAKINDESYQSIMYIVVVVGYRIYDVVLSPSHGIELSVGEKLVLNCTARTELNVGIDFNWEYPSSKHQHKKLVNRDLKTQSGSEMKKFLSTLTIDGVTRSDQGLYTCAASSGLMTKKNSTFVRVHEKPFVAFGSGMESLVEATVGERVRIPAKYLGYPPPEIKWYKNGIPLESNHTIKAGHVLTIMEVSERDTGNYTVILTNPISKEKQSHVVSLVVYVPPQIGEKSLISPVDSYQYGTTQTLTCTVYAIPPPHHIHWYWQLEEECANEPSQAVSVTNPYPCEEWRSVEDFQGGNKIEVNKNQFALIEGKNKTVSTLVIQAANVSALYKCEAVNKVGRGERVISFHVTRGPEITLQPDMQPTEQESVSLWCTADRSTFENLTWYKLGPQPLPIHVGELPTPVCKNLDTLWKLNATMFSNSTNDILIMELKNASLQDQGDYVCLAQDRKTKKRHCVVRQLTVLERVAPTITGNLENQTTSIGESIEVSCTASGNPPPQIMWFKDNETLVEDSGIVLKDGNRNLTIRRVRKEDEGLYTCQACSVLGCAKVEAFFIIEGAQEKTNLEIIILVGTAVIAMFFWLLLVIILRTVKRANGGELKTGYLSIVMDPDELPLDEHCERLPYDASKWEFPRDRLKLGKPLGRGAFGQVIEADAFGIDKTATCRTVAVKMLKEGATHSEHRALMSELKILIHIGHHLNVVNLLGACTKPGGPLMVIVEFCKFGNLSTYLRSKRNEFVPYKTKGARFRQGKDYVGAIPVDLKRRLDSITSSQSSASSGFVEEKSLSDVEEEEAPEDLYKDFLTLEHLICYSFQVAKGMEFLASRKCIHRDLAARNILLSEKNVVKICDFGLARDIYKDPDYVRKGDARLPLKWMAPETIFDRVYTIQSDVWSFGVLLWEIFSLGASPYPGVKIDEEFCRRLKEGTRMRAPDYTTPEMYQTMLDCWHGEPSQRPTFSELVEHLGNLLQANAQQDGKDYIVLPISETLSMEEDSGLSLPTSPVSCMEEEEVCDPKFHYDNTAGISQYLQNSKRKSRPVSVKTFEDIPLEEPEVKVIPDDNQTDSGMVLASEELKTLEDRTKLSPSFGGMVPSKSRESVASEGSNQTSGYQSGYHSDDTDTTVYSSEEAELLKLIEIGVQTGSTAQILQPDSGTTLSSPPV
Protocol: Binding dynamics and affinity of RLYE (SEQ ID NO: 2) to rhVEGFR-2 were evaluated with BIAcore AB (Sweden). A carboxymethylated dextran biosensor chip (CM5, BIAcore AB) was activated with 1-ethyl-3-(3-dimethylaminopropyl)carbodiimide and N-hydroxysuccinimide according to the manufacturer's manual. The rhVEGFR-2 (1 ng/μl, 10 mM Hepes, 150 mM NaCl, 3 mM EDTA, 0.005% Tween-20-containing HBS-EP buffer) was injected over the activated CM5 chip for fixation. Various concentrations of an RLYE (SEQ ID NO: 2) solution was injected over the rhVEGFR-2-fixed center chip with a flow rate of 25 μl/min, and binding and non-binding characteristics between RLYE (SEQ ID NO: 2) and the rhVEGFR-2 were analyzed. The peptide bonds were measured in arbitrary response units, and after the injection of each sample (120 sec), the HBS-EP buffer was passed over a sensor surface to monitor dissociation. The equilibrium dissociation constant (Kd) was derived to a fixing step-combined model.

[4] = system: B16F10 mouse melanoma cells; test: Tumor metastasis experiment model (B16F10); assay type: in vivo, C57BL/6J mouse; details: B16F10, 1 mg/kg per day peritoneally, three weeks, versus untreated control mouse
Protocol: 1×10^5 B16F10 mouse melanoma cells were injected into the caudal vein in the C57BL/6J mouse, and 1 mg/kg (100 μl) of RLYE (SEQ ID NO: 2) was peritoneally injected daily for 3 weeks. The lung was extracted and washed with Dulbecco's PBS, fixed in a 4% paraformaldehyde solution overnight, and the number of tumor metastasis shown on the entire surface of the lung was counted under a stereoscopic microscope.

VEGFR-2 [5] = biological target: T2, VEGFR-2; test: VEGFR pull-down assay using biotin-labeled RLYE, VEGFR-2; assay type: binding; parameters: endogenous in cells; host or cells: HUVEC; details: HUVEC lysate
Protocol: as §2

## CC(C)C[C@H](NC(=O)[C@@H](N)CCCNC(=N)N)C(=O)N[C@@H](Cc1ccc(O)cc1)C(=O)N[C@@H](CCC(=O)O)C(=O)O [RLYE] (H-RLYE-OH; N-terminus and C-terminus assumed)
HUVECs [1]; VEGF 10 ng/ml, [3H]-thymidine incorporation
  inhibition of VEGF-induced HUVEC proliferation: effectively inhibited
HUVECs [1]; versus KLYD
  IC50 lower than that of the control KLYD (HUVEC proliferation): 10 fold
HUVECs [2]; HUVECs, peptide 0.15 nM, VEGF 10 ng/ml
  inhibition of VEGF-induced tube formation: effectively regulated; also recorded: much higher inhibitory effect on the tube formation than KLYD; also recorded: effectively inhibited
HUVECs [2]; bFGF stimulated
  bFGF-induced tube formation of HUVECs: did not inhibit
ERK; P1GF (ligand of VEGFR-1)
  P1GF-induced ERK phosphorylation: did not inhibit
ERK; VEGF / VEGF-A stimulated
  inhibition of VEGF-induced ERK phosphorylation: inhibited; also recorded: more effectively inhibited; also recorded: highest inhibitory effect
ERK; VEGF-B (ligand of VEGFR-1)
  VEGF-B-induced ERK phosphorylation: did not inhibit
zebrafish
  formation of intersegmental vessels (ISV): obviously inhibited
  formation of subintestinal vessels (SIV): considerably inhibited
Akt
  phosphorylation of Akt: inhibited
NO synthase (eNOS)
  VEGF-A-induced phosphorylation of eNOS: effectively blocked
VEGFR-1
  binding to VEGFR-1 (pull-down): does not bind to VEGFR-1
VEGFR-2 [3]
  binding to rhVEGFR-2 (SPR): effectively binds
[4]
  decrease in number of colonies of tumor cells spreading to the lung: 62%
VEGFR-2 [5]
  binding to VEGFR-2 (pull-down): binds to VEGFR-2
